In patent publication US5185366A, “Method for treatment and prevention of diseases caused by enveloped viruses, including herpes simplex virus types 1 and 2 diseases, using 3,4-dihydroxy-2H-benzopyran-2H-one” (Ohio State University Research Foundation, priority 1990, dated 1993):
Read-outs that look alike come from different tables or passages of the source.

Assays:
[1] = tested on: HSV-2; assay: Intracellular activity, inhibition of plaque forming units, HSV-2; assay type: cell-based, Herpes simplex virus type 2; details: for inhibition at 0.4 µM: Human alphaherpesvirus 2, HSV-2, 0.4 μmol/L; for inhibition at 1.6 µM: Human alphaherpesvirus 2, HSV-2, 1.6 μmol/L; for inhibition at 10 µM: Human alphaherpesvirus 2, HSV-2, 10.0 μmol/L
[2] = tested on: Buffalo green monkey kidney (BGM 70) cells; assay: [3H]-thymidine uptake cytotoxicity; assay type: cell-based; details: for inhibition at 0.4 µM / inhibition at 1.6 µM / inhibition at 2.5 µM / inhibition at 10 µM: Chlorocebus sabaeus, read-out: % Inhibition of [3H]-Thymidine Incorporated; for inhibition at 0.4 µM: 0.4 μmol/L; for inhibition at 1.6 µM: 1.6 μmol/L; for inhibition at 2.5 µM: 2.5 μmol/L; for inhibition at 10 µM: 10.0 μmol/L
[3] = tested on: HSV-2; assay: Extracellular activity, inhibition of plaque forming units, HSV-2; details: for inhibition at 0.4 µM: Human alphaherpesvirus 2, read-out: % Inhibition of PFU, EA (extracellular activity), HSV-2, 0.4 μmol/L; for inhibition at 1.6 µM: Human alphaherpesvirus 2, read-out: % Inhibition of PFU, EA (extracellular activity), HSV-2, 1.6 μmol/L; for inhibition at 2.5 µM: Human alphaherpesvirus 2, read-out: % Inhibition of PFU, EA (extracellular activity), HSV-2, 2.5 μmol/L; for inhibition at 10 µM: Human alphaherpesvirus 2, read-out: % Inhibition of PFU, EA (extracellular activity), HSV-2, 10.0 μmol/L
[4] = Inhibition of cell growth (microscopic cell count); assay type: cell-based, Buffalo green monkey; details: monkey, bgm-70 cells, read-out: % Reduction of cell growth; for inhibition at 24 h, 0.4 µM / inhibition at 48 h, 0.4 µM: 0.4 μmol/L; for inhibition at 24 h, 1.6 µM / inhibition at 48 h, 1.6 µM: 1.6 μmol/L; for inhibition at 24 h, 2.5 µM / inhibition at 48 h, 2.5 µM: 2.5 μmol/L; for inhibition at 24 h, 10 µM / inhibition at 48 h, 10 µM: 10.0 μmol/L; for inhibition at 24 h, 50 µM / inhibition at 48 h, 50 µM: 50.0 μmol/L; for inhibition at 24 h, 100 µM / inhibition at 48 h, 100 µM: 100.0 μmol/L
Procedure: a MASHII cell harvester and placed in a scintillation counter to determin
incorporation of labelled compound and level of toxicity. BGM 70 cells ar
seeded at a concentration of […] per well in a 24well tissue cultur
plate. Cells are planted in 2 mL of growth medium with or without the tes
compound and are incubated at 37° C. for 38 hours. At 24 hours
medium is removed from onehalf of the plates and the cells are fixed and
stained with crystal violet. The remaining cultures are fixed and stained
^b BGM 70 cells are counted microscopically and comparisons are made.
Experiments are performed blindly by assigning each compound concentratio
a letter code. The code is broken after the cells are counted.
The effect of the compounds on the inhibition of cell growth is determined using BGM-70 cells grown in vitro. For this assay, BGM 70 cells are seeded at a concentration of approximately 70 cells per well in 24-well tissue culture plates. Cells are planted in 2 ml of growth medium with or without the test compound and are incubated at 37° C. for 48 hours. At 24 hours, cells from one half of the plates are fixed and stained with crystal violet. The remaining cultures are fixed and stained at 48 hours. Cells are counted microscopically and comparisons are made between non-treated (control) and treated cells.

[5] = tested on: viruses having no lipids; details: cited from earlier work
[6] = tested on: HSV; details: cited from earlier work; for extracellular inactivation of HSV: 0.5 mM
[7] = tested on: enveloped viruses; details: cited from earlier work
[8] = tested on: cellular protein synthesis; details: Pottage et al., cited from earlier work
[9] = tested on: HBV surface antigen; details: Pottage et al., cited from earlier work
[10] = tested on: herpes simplex virus type 1 (HSV-1); details: cited from earlier work
[11] = tested on: enveloped virus .phi. 6; details: cited from earlier work
[12] = tested on: human immunodeficiency virus (HIV); details: cited from earlier work
[13] = read-out: % Inhibition of PFU, IA (intracellular activity)
[14] = at concentrations of 10 μM or less

## CC1(c2ccc(Cl)cc2)OC(=O)C(O)=C1O (racemic) [Compound 1]
[1]; [13]
  inhibition at 0.4 µM: 0%
  inhibition at 1.6 µM: 8 ± 2.4%
[2]; 24 h
  inhibition at 0.4 µM: 0%
  inhibition at 1.6 µM: 16.7 ± 12.7%
  inhibition at 2.5 µM: 66.7 ± 5.8%
  inhibition at 10 µM: 95 ± 0.4%
[2]; 48 h
  inhibition at 0.4 µM: 0%
  inhibition at 1.6 µM: 14.5 ± 15.5%
  inhibition at 2.5 µM: 74.3 ± 9.3%
  inhibition at 10 µM: 98.6 ± 0.5%
[2]; 72 h
  inhibition at 0.4 µM: 0%
  inhibition at 1.6 µM: 39.9 ± 15.7%
  inhibition at 2.5 µM: 53.9 ± 16.3%
  inhibition at 10 µM: 98.2 ± 0.8%
[2]; [14]
  toxicity ([3H]-thymidine uptake and/or cell growth): display toxicity
[3]
  inhibition at 0.4 µM: 0%
  inhibition at 1.6 µM: 1.5 ± 0.1%
[4]
  inhibition at 24 h, 0.4 µM: 12 ± 4%
  inhibition at 24 h, 1.6 µM: 54 ± 8.6%
  inhibition at 24 h, 2.5 µM: 60 ± 9.1%
  inhibition at 48 h, 0.4 µM: 16 ± 3.6%
  inhibition at 48 h, 1.6 µM: 67 ± 12.1%
  inhibition at 48 h, 2.5 µM: 90 ± 4.6%

## Cc1cc(C(C)(C)C)c(O)c(C(C)(C)C)c1 [BHT, butylated hydroxytoluene]
[5]
  inactivation of viruses having no lipids: comparatively insensitive
[6]; Snipes et al., read-out: concentration causing 50% inactivation of HSV
  IC50: 70 to 160 µM
[7]
  inactivation of viruses that contain lipids: readily inactivated

## O=C1OC2(CCCCC2)C(O)=C1O [Compound 4, 4-spiro-2-hydroxytetronic acid]
[2]; [14]
  toxicity ([3H]-thymidine uptake and/or cell growth): display toxicity
[3]
  inhibition at 0.4 µM: 2 ± 1%
  inhibition at 1.6 µM: 1.8 ± 0.2%
[4]
  inhibition at 24 h, 0.4 µM: 6 ± 1.1%
  inhibition at 24 h, 1.6 µM: 21 ± 12%
  inhibition at 24 h, 2.5 µM: 37 ± 9.4%
  inhibition at 24 h, 10 µM: 88 ± 6.1%
  inhibition at 48 h, 0.4 µM: 8.4 ± 3.6%
  inhibition at 48 h, 1.6 µM: 22 ± 6.1%
  inhibition at 48 h, 2.5 µM: 59 ± 12.4%
  inhibition at 48 h, 10 µM: 86 ± 6.1%

## O=c1oc2ccc(Cl)cc2c(O)c1O [Compound 6]
[1]; [13]
  inhibition at 0.4 µM: 3 ± 1.1%
  inhibition at 1.6 µM: 10 ± 4.6%
[2]; 24 h
  inhibition at 0.4 µM: 11.1 ± 9.1%
  inhibition at 1.6 µM: 31.1 ± 5.8%
  inhibition at 2.5 µM: 17.8 ± 2%
  inhibition at 10 µM: 90 ± 1.4%
[2]; 48 h
  inhibition at 0.4 µM: 16.7 ± 8.4%
  inhibition at 1.6 µM: 46.8 ± 9%
  inhibition at 2.5 µM: 20 ± 3.3%
  inhibition at 10 µM: 99.2 ± 0.8%
[2]; 72 h
  inhibition at 0.4 µM: 31.8 ± 12%
  inhibition at 1.6 µM: 41.4 ± 14%
  inhibition at 2.5 µM: 17 ± 5%
  inhibition at 10 µM: 99.2 ± 0.8%
[2]; [14]
  toxicity ([3H]-thymidine uptake and/or cell growth): display toxicity
[3]
  inhibition at 0.4 µM: 1.5 ± 0.8%
  inhibition at 1.6 µM: 1.2 ± 0.6%
  inhibition at 2.5 µM: 0.4 ± 0.1%
[4]
  inhibition at 24 h, 0.4 µM: 21 ± 1%
  inhibition at 24 h, 1.6 µM: 20 ± 6.2%
  inhibition at 24 h, 2.5 µM: 56 ± 12%
  inhibition at 48 h, 0.4 µM: 12 ± 6.5%
  inhibition at 48 h, 1.6 µM: 30 ± 13.1%
  inhibition at 48 h, 2.5 µM: 58 ± 9.4%

## O=c1oc2ccc(O)cc2c(O)c1O [Compound 7]
[1]; [13]
  inhibition at 10 µM: 10 ± 3.2%
[2]; 24 h
  inhibition at 0.4 µM: 13.6 ± 6.1%
  inhibition at 1.6 µM: 28.6 ± 12%
  inhibition at 2.5 µM: 36.9 ± 8.6%
  inhibition at 10 µM: 44.3 ± 9.1%
[2]; 48 h
  inhibition at 0.4 µM: 13.9 ± 6.1%
  inhibition at 1.6 µM: 31.7 ± 8.4%
  inhibition at 2.5 µM: 37.2 ± 5.1%
  inhibition at 10 µM: 46.6 ± 8%
[2]; 72 h
  inhibition at 0.4 µM: 13.9 ± 6.1%
  inhibition at 1.6 µM: 31.6 ± 8.4%
  inhibition at 2.5 µM: 39.3 ± 13.1%
  inhibition at 10 µM: 48.4 ± 14%
[2]; [14]
  toxicity ([3H]-thymidine uptake and/or cell growth): display toxicity
[3]
  inhibition at 10 µM: 86 ± 0.5%
[4]
  inhibition at 24 h, 0.4 µM: 14.2 ± 6.2%
  inhibition at 24 h, 2.5 µM: 0.4%
  inhibition at 24 h, 10 µM: 1.6 ± 0.2%
  inhibition at 24 h, 50 µM: 18.4 ± 6.1%
  inhibition at 24 h, 100 µM: 52 ± 8%
  inhibition at 48 h, 2.5 µM: 1 ± 0.4%
  inhibition at 48 h, 10 µM: 2 ± 1%
  inhibition at 48 h, 50 µM: 22.1 ± 8.4%
  inhibition at 48 h, 100 µM: 66 ± 11.1%

## O=c1oc2cc3c(cc2c(O)c1O)OCO3 [Compound 8]
[1]; Human alphaherpesvirus 2, HSV-2, 2.5 μmol/L, read-out: % Inhibition of PFU, IA (intracellular activity)
  inhibition at 2.5 µM: 1 ± 0.2%
[1]; [13]
  inhibition at 10 µM: 6.1 ± 1%
[2]; at 10 μM
  toxicity ([3H]-thymidine uptake and/or cell growth): no toxicity
[3]
  inhibition at 2.5 µM: 3 ± 1%
  inhibition at 10 µM: 16 ± 8%
[4]
  inhibition at 24 h, 2.5 µM: 2 ± 0.6%
  inhibition at 24 h, 10 µM: 6.6 ± 1%
  inhibition at 24 h, 50 µM: 54 ± 2%
  inhibition at 24 h, 100 µM: 68 ± 7.6%
  inhibition at 48 h, 2.5 µM: 4.2 ± 3.6%
  inhibition at 48 h, 10 µM: 8.1 ± 2.1%
  inhibition at 48 h, 50 µM: 52.2 ± 9.1%
  inhibition at 48 h, 100 µM: 71 ± 8.1%

## CC(=O)N1CCN(c2ccc(OCC3COC(Cn4ccnc4)(c4ccc(Cl)cc4Cl)O3)cc2)CC1 (centres unmarked) [Ketoconazole]
[8]; 10 μg/mL
  reduction in protein synthesis: 38%
[8]
  cellular protein synthesis: decrease in cellular protein synthesis
[9]; 10 μg/mL
  inhibition in HBV surface antigen production: 72%
[9]
  HBV surface antigen production: non-specifically inhibits HBV surface antigen production

## CCOC(=O)C(C)(C)Oc1ccc(Cl)cc1 [clofibrate, clofibric acid ethyl ester]
[6]; Steinhart et al.
  antiherpetic activity: antiherpetic activity

## CC(C)(Oc1ccc(Cl)cc1)C(=O)O [clofibric acid, reference compound]
[1]; Human alphaherpesvirus 2, 500 μM, one experiment, n=3 wells, P<0.02, read-out: inhibition (PFU), virus-infected cells
  inhibition at 500 µM: 66 ± 6%
[10]; 500 μM, Mehl
  anti-HSV-1 activity (inhibition): 45%
[10]; BGM 70 cells
  inhibition of replication of HSV-1: inhibit replication of herpes simplex virus type 1 (HSV-1)
[3]; 500 μM, P>0.05
  inhibition, extracellular treatment of HSV-2: no significant (P>0.05) inhibition

## CCCCCCCCCCO [decanol]
[6]
  extracellular inactivation of HSV: 90-100%

## CCCCCCCCCCCCO [dodecanol]
[6]
  extracellular inactivation of HSV: 90-100%

## CCCCC[C@@H](O)[C@H]1C(=O)O[C@H](C)[C@@H](O)/C=C/C=C/C=C/C=C/C=C(\C)[C@@H](O)C[C@H](O)C[C@H](O)C[C@H](O)C[C@H](O)C[C@H](O)C[C@@H]1O [filipin]
[7]
  inactivation of enveloped viruses: inactivates enveloped viruses

## C/C(=C\CO)CCC[C@H](C)CCC[C@H](C)CCCC(C)C [phytol]
[11]
  concentration inhibiting enveloped virus .phi. 6: 10^-6 to 10^-4 mM
[6]
  concentration inhibiting HSV: 0.01 to 0.1 mM

## CCCCCCCCCCCCCCO [tetradecanol]
[6]
  extracellular inactivation of HSV: 90-100%

## benzalkonium chloride
[12]
  inactivation of HIV: inactivate HIV
[12]; general fluids of seropositive individuals
  concentration destroying the infectiousness of HIV: 0.05%

## nonoxynol-9
[12]
  inactivation of HIV: inactivate HIV
